This is an account of results in publication PMC6486608, “A cell-penetrating peptide blocks Toll-like receptor-mediated downstream signaling and ameliorates autoimmune and inflammatory diseases in mice” (Experimental & Molecular Medicine, 2019).

The subject of experiment [1] is CIA mouse model (DBA/1J mice). Description: RA in a model of CIA. The experiment is classed as in vivo. To be noted: i.p. daily. As for the experimental part:
All animal care and experimental procedures were conducted in accordance with the National Institute of Health Guide for the Care and Use of Laboratory Animals and were approved by the Animal Care and Use Committee of Kyung Hee University [Permit number: KHUASP(SE)-15-115]. Male DBA/1J mice weighing 20–23 g (6–7 weeks old) were purchased from Central Lab Animal Inc. (Seoul, Korea). The mice were housed in a limited-access rodent facility at 22–24 °C with up to four animals per polycarbonate cage under a 12:12-h light/dark cycle with free access to pelleted food and water. CIA was implemented according to the protocol previously described. Briefly, the mice were immunized at the base of the tail with a mixture of 100 μg of chicken type II collagen (CII, Sigma-Aldrich) and an equal volume of complete Freund’s adjuvant (Sigma-Aldrich); this time point was designated as day 0. The mice were then given a booster (second) injection of the mixture on day 14. […] To evaluate arthritis progression in the CIA mice, body weight, paw volume, squeaking score, and the arthritic index were measured. The mouse body weights were measured using a digital balance (Mettler-Toledo Inc., Columbus, OH, USA). Joint pain in the hindlimb was evaluated by scoring squeaking during forced flexion and extension of the hindlimb ankle joint 10 times every 5 s. […] Total numbers of vocalizations detected by the observer were then calculated as the squeaking score. Paw volume was measured by the volume displacement of an electrolyte solution using a water-displacement plethysmometer (Ugo-Basile Biological Research Apparatus Co., Comerio-Varese, Italy) as described elsewhere[13],[14]. The hind paw was immersed to the level of the hairy skin, and the volumes were read on a digital display. Paw volume was expressed as a relative value compared with that on day 0, which was defined as 1.0 (100%). […]

Experiment [2] addresses T1, BB loop (710-RDFIPGVAIAA-720) of the TLR4-TIR domain (Homo sapiens, UniProt O00206).
T1 construct: Synthetic peptides encoding the BB loop (710-RDFIPGVAIAA-720) of the TIR domain were immobilized; purchased Peptron, Inc. (Daejeon, Korea); host or cells: chemical synthesis
Description: SPR, BB loop. The class given is binding. As for the experimental part:
The SPR experiments were conducted using a ProteOn XPR36 instrument (Bio-Rad Laboratories, Inc.) with a ProteOn NLC sensor chip. PBST served as running buffer, and 0.85% phosphoric acid or PBST was used for regeneration. Synthetic peptides encoding the BB loop (710-[…]-720) of the TIR domain were immobilized by NeutrAvidin bound to the GLC polymer layer onto surfaces of an NLC sensor chip as described in the protocol. Different concentrations of TIP1 (12.5, 25, or 50 μM) were run into the chip to check their binding with the immobilized peptides. Running buffer was injected into an empty channel as a reference. The dissociation was monitored for 5 min, and the chip was regenerated for the second round. ProteOn Manager software (version 2.0) was employed to analyze the data. The binding curves were processed for the start injection alignment and baseline. A reference-subtracted sensorgram was fitted globally to the curves describing a homogeneous 1:1 model. Data from various doses of TIP1 were grouped together to fit the kinetic rate constants (ka and kd). The equilibrium dissociation constant, KD, was calculated according to the equation KD = kd/ka. Surface plasmon resonance (SPR) is a powerful technique used for high-throughput screening and is considered a potent tool for drug discovery. SPR can provide detailed information on peptide-receptor binding kinetics or small-molecule-protein or protein-protein interactions. […] The association rate constant (ka), dissociation rate constant (kd), and equilibrium dissociation constant (KD) of TIP1 were measured in a dose-dependent manner (Fig. 4a). […] Later, the fluorescence intensities of TIP1-FITC, TLR4, and MyD88 were measured by immunofluorescent staining and confocal microscopy. […] The expression levels of TLR4 and MyD88 and the localization of TIP1-FITC were determined by immunofluorescent staining and confocal microscopy. Orthogonal projections, 3D image reconstruction, and fluorescence intensity profiles of confocal images show localization of TIP1-FITC and TLR4.
(In general: SPR reads the build-up and loss of mass on a sensor chip optically.)

Ends that are not written are not given here.

As for `C[C@]12C=CC(=O)C=C1CC[C@@H]1[C@@H]2[C@@H](O)C[C@@]2(C)[C@H]1CC[C@]2(O)C(=O)CO` [prednisolone], the “body weight, average” value in experiment [1] (TIP1 10 nmol/g or prednisolone 5 mg/kg, CIA 16.9 g, normal 21.9 g) is on record as 21.0 g. In experiment [1] (TIP1 10 nmol/g or prednisolone), the arthritis index score result is recorded as “significantly decreased the index score”; the “squeaking and paw volume increase” value is given as “highly increased in the CIA mice compared with normal mice but not in the TIP1 (10 nmol/g)- or prednisolone-injected mice”.

As for RQIKIWFQNRRMKWKKSHCRVLLI [TIP1], the kon in experiment [2] (homogeneous 1:1 model, global fit of 12.5, 25, 50 µM, read-out: ka (association rate constant)) stood at 187 M⁻¹ s⁻¹. Moreover, the koff in experiment [2] (homogeneous 1:1 model, global fit of 12.5, 25, 50 µM, read-out: kd (dissociation rate constant)) worked out at 0.00782 s⁻¹. Besides, in experiment [2] (printed in figure 4a, calculated as kd/ka), the Kd (in general, the constant that tells how readily two partners part at equilibrium) was 41.8 µM.
